Results on one compound are retold here after US8871900B2, “Fibroblast growth factor (FGF) analogs and uses thereof” (University of Rochester, priority 2008, dated 2014).

In assay [1] the test system is proliferating crypts of small intestine. Kind of assay: Crypt assay of small intestine after sub-TBI (H&E, BrdU, villi length). The class given is in vivo, mouse (Balb/c, C57BL/6). The source says: Enhanced proliferation of crypts in small intestine: The epithelium of the small intestine has a rapid turnover, renewing every 3-7 days. The stem cells are located ⅓ of the way up the […] and active mitosis can be seen above growing into the villus and below, forming the crypt. There are no definitive markers available to identify the stem cells, and thus the number of these cells in each crypt are unknown. When the bowel is irradiated, the number of crypts remains constant up to a dose just below the LD50/7. Above that dose, there is a log-linear decrease in the number of crypts, usually measured at 3.5 days. […] Data from the crypt assay can be augmented with injection of BrdU. BrdU can be given to animals at one or more times after irradiation to determine the rate of proliferation and rate of elongation of villi.
FGF-P was then repeated daily for 2 days. At 80 hr post-IR, BrdU (120 mg/kg) was injected ip and 4 hours later (about 3.5 days post-IR), the mice were sacrificed and the duodenal, jejunal and ileal segments (3-4 pieces/segment) were harvested, fixed in formalin, processed in paraffin blocks, cut in transverse sections of the full segment circumference (5 μm thick) and stained with H&E or anti-BrdU following the standard immunochemistry procedure (23). The proliferating crypts were defined as containing 10 or more adjacent chromophilic non-Paneth cells and a lumen. The circumference of a transverse cross-section of the intestine was used as a unit. The number of proliferating crypts was counted in each circumference. At least 10 circumferences were scored per mouse and 4-5 mice were used to generate each data point.
The villi length of duodenum, jejunum and ileum was measured using a customized Imaging Pro program.

Assay [2] can be described thus: Stool hemoccult score after sub-TBI. The class given is in vivo, mouse (Balb/c, C57BL/6). Particulars: Balb/c, 12.5 Gy sub-TBI; FGF-P 2 mg/kg im 15 min post irradiation; Amifostine iv 30 min pre-irradiation; P<0.05. The text has this:
There are commonly employed assays known to be relevant to both mouse and man for determining relative endpoints. These include: 1) stool blood: mucosal barrier breakdown is associated with bleeding of the small bowel; therefore, a hemoccult analysis with a commercial kit (BD Cat #64151) was used in the preliminary data at 3 days after sub-TBI. The time course and frequency of GI bleeding; 2) stool formation: the GI functions of digestion, absorption of nutrition and water, and the regular movement of intestinal muscle are required for formation of normal stool can be measured. All these functions can be upset by radiation. For example, loss of villi leads to decreased fluid absorption and diarrhea. The colon was excised and examined visually for the presence of formed stool at 3.5 days post-IR; 3) endotoximia: bacterial translocation can occur at early times following gastrointestinal radiation exposure.
2) A standard scoring scale was used to evaluate stool formation (diarrhea). The bowel was extracted from the abdomen and visually inspected. Formed stool was easily distinguished from semi-solid and liquid stool as it passed from the ascending to descending colon. FIGS. 7B and 7C show the irradiated bowel in controls compared with FGF-P-treated Balb/c mice. The FGF-P was given at a dose of 2 mg/kg im for three daily doses beginning 15 min after irradiation. […]

A short description of assay [3]: Plasma GI endocrine and exocrine markers after sub-TBI. The class given is in vivo, mouse (Balb/c). Particulars: 10.5 Gy sub-TBI, 3.5 days. The source says:
The gastrointestinal tract facilitates nutritional absorption and digestion through endocrine organs and exocrine function. Measurements of these functions in Balb/c mice with AGS, with and without FGF-P treatment have been made. Regarding endocrine function, critical proteins produced by epithelial cells lining the small intestine and/or the pancreas are: 1) secretin, which stimulates secretion of a bicarbonate-rich fluid from the pancreas and liver; and 2) insulin, produced by pancreatic β cells, which controls the level of blood glucose. Regarding exocrine function, a major digestive protein, amylase was measured. Amylase is secreted by epithelial cells along the GI tract, including the pancreas.
For secretin, the amino acid sequence in mice is ([…], SEQ ID NO: 4), which has a one amino acid change (M vs. T) at position 5. The kit for human secretin (Peninsula Laboratories, cat #S-1229) has been tested and it recognizes the mouse form. A mouse insulin kit is available (Linco Inc. Cat #EZRMI-13 K). The EnzChek Ultr Amylase Assay kit (Molecular Probes, Cat #E33651.3) can be used for all species, since it measures for the enzymatic product. Blood glucose level can be measured with a commercial kit from Sigma (Cat #GAG0-20 and GAHK-20) and is based on enzymatic activity, which is also universal to all species. Using these kits, the alterations in the plasma concentrations of the GI-derived proteins and peptides in mice that had been exposed to 10.5 Gy sub-TBI and, thereafter, received vehicle alone or FGF-P ([…] im) for 3 doses (10 min, 1 day, and 2 days post-IR) were measured. The samples were collected 3.5 days after irradiation.

The next assay has as its system BM cells. The assay can be described thus: BM colony formation in MethoCult 3 D culture. The format is cell-based, mouse (Balb/c). The text has this: Survival of ARS depends on rapid reconstitution of hematopoiesis after IR-induced myelosuppression. […] However, the timing and mechanism of effect on BM stem cells is unknown. Also unclear are the number of FGFRs on hematopoietic stem cells (HSCs) and their role in reconstitution after IR. […] To characterize the effects of FGF-P on BM, the study approach was to obtain fresh BM (including both HSCs and MSCs) from Balb/c mice, and culture it under varying conditions (3 D culture or 2 D round-bottom well) in triplicate for 1-3 weeks. The BM cells were stimulated with FGF-P at different doses (as test) or with EPO, TPO, GM-CSF or native FGF2 (as a positive control). The cultures were examined using several methods including colony count, photography, CyQUANT® assay and ^3H-TdR incorporation.

Assay [4] in a line: Tail vein bleeding time after 4 Gy TBI. The class given is in vivo, mouse. The note with it: 10 days after 4 Gy TBI; FGF-P 15 mg/kg daily for 3 days then every other day for 3 times. The text has this:
The bleeding is stopped by coagulant cascade, mainly the platelet aggregation, the vessel contraction and thrombosis which are trigged by the released platelet granules (Francis 2007, Khorana 2005). IR blocks the megakaryocytopoiesis and reduces the thrombocytopoiesis (an imbalance between the synthesis and consuming of coagulant proteins), which leads to a prolonged bleeding time. To determine if FGF-P has any effect on the bleeding time, the a single tail vein at the same anatomy position was cut in same depth and merged into 37° C. warm water, the time between bleeding and stopping was recorded. The test was performed on 10 days after 4 Gy TBI.

The mark [5] stands for this setting: FGF-P (2 mg/ml im) 3 doses, P<0.05.

Peptide text beside a SMILES is read from it.

On to `CC(C)C[C@H](NC(=O)[C@H](C)NC(=O)[C@@H](NC(=O)[C@H](Cc1ccc(O)cc1)NC(=O)[C@H](Cc1c[nH]c2ccccc12)NC(=O)[C@H](CO)NC(=O)[C@H](CO)NC(=O)[C@H](Cc1ccc(O)cc1)NC(=O)[C@H](CCCCN)NC(=O)[C@H](CCCNC(=N)N)NC(=O)[C@H](CO)NC(=O)[C@H](CCCNC(=N)N)NC(=O)[C@H](Cc1ccc(O)cc1)NC(=O)[C@@H](N)CS)C(C)C)C(=O)N[C@@H](CCCCN)C(=O)N[C@@H](CCCNC(=N)N)C(=O)N[C@@H](CS)C(=O)O` [FGF-P, CYRSRKYSSWYVALKRC] (H-CYRSRKYSSWYVALKRC-OH; N-terminus and C-terminus assumed), for which the “numbers of proliferating crypts in the bowel” value in assay [1] (10.5 Gy sub-TBI, about 3.5 days post-IR, FGF-P 2 mg/kg im, repeated daily for 2 days) was “increased”. Further, the crypt survival entry in assay [1] (10.5 Gy sub-TBI, FGF-P 2 mg/kg im) is “approximately doubles crypt survival”. The “proliferating crypts, BrdU staining method” value in assay [1] (12 Gy, P<0.05) is “A similar result was obtained using the BrdU staining method”. Also, in assay [1] (12 Gy, duodenum, jejunum, ileum, P<0.05), the “number of proliferating crypts” value was “higher number of proliferating crypts in duodenum, jejunum and ileum”. In assay [1] (Balb/c, 3.5 days after 12 Gy, FGF-P given after irradiation), the “crypt numbers in the ileum” value is “Higher numbers of crypts”. Moreover, the villi length entry in assay [1] (C57BL/6, 16 Gy sub-TBI, P<0.05) was “better preserved villi length in the duodenum and jejunum”. Also, the crypt numbers result in assay [1] (C57BL/6, doses as high as 16 Gy sub-TBI) is “improved crypt numbers in all sections of C57BL/6 small bowel”. Besides, the stool hemoccult score result in assay [2] is recorded as “reduced stool hemoccult score”. In addition, in assay [3] (setting [5]), the plasma amylase level result is “restored it to normal levels”, the plasma insulin levels entry is “restored to near normal” and the “plasma level of secretin” value is “reversed this effect”. In assay [3] (FGF-P (im) 3 doses), the blood glucose result is “better preserved”. Also, in the assay on BM cells, the “colony formation of BM cells” value is listed as “enhanced colony formation of BM cells in a dose dependent manner”. For the same compound, the bleeding time result in assay [4] is on record as “shorter bleeding time”.
